Laboratory results: US8901276B2, “Peptide reagents and methods for detection of colon dysplasia” (The Regents of the University of Michigan, priority 2010, dated 2014)

Key:
[1] = system: Hs738.St/Int. cells; experiment: Fluorescence microscopy of FITC-labeled peptides; type: cell-based, human; details: 10 μM, 15 min
Procedure: Preferential binding of the FITC-Peptide 2 and FITC-Control peptide 2 to target and non-target cells was also validated via fluorescence microscopy. HT29 and Hs738.St/Int. cells were grown in 22 mm2 cover slips with ˜80% confluence. Blocking of non-specific binding was performed by adding PBS/0.5% BSA for 30 min. The cells were then incubated with 10 μM of FITC-Peptide 2 or FITC-Control peptide 2 either at 4 or 37° C. for 15 min followed by 1 μg/mL Hoechst dye (Sigma Aldrich, St. Louis, Mo.) along with the peptide. The cells were washed with PBS for 3 times and fixed with 4% paraformaldehyde at room temperature for 10 min. After fixation, the cells were washed again with PBS (1×) and mounted with ProLong® Gold reagent (Invitrogen, Carlsbad, Calif.) and the fluorescence images were acquired with Leica Confocal system. (Leica Microsystems GMBH, Wetzlar, 35578 Germany)
Preferential binding of the FITC-labeled candidate and control peptides to the target and non-target cells was further validated via fluorescence microscopy. HT29 and Hs738.St/Int. cells were grown on cover slips to ˜80% confluence. Blocking of non-specific binding was performed by adding PBS/0.5% BSA for 30 min. The cells were then incubated with 10 μM of 5-FITC-labeled candidate or control peptide at either 4 or 37° C. for 15 min followed by staining with 1 μg/mL Hoechst dye (Sigma Aldrich, St. Louis, Mo.) along with the peptide. The cells were washed 3× with PBS and fixed with 4% paraformaldehyde at RT for 10 min. After fixation, the cells were washed again with PBS and mounted with ProLong Gold reagent (Invitrogen, Carlsbad, Calif.) and fluorescence images were collected with confocal microscopy (Leica TCS SP5 Microsystems, Bannockburn, Ill.).

[2] = system: human colon surgical specimens (normal mucosa, dysplastic adenomas, carcinoma); experiment: Binding of synthetic peptides to human surgical specimens of colon cancer (Example 9)
Procedure: Fresh frozen sections from human surgical specimens were cryosectioned with […] and used to localize peptide binding. The sectioned tissues were air dried and washed with PBS 1×. Sections were incubated with FITC labeled peptides (10 μM) for 15 min at RT. The sections were washed three times each for 1 min in PBS and fixed with 4% paraformaldehyde for 10 min. After fixing, the sections were washed again (1×) and mounted with ProLong® Gold reagent with DAPI (Invitrogen, Carlsbad, Calif.). The sections were imaged under a confocal microscope ([…]). All surgical specimens were obtained from the tissue procurement core of University of Michigan with approval from the Institutional Review Board (IRB).

[3] = system: human colonic mucosa sections (normal, dysplasia, adenocarcinoma); experiment: Peptide immunohistochemistry on frozen sections (Example 11); details: for target-to-background (T/B) ratio KCCFPAQ peptide vs. control peptide: frozen sections; for fluorescence intensity on immunohistochemistry: mean±SEM
Procedure: All specimens were obtained with approval from the University of Michigan Institutional Review Board (IRB). Freshly resected specimens of human colonic mucosa were frozen in OCT and sectioned with 10 μm thickness. The sections were then air dried, washed with PBS, and incubated with the FITC-labeled peptides at a concentration of 10 μM for 15 min at RT. The sections were washed 3× for 1 min in PBS and fixed with 4% paraformaldehyde for 10 min. After fixation, the sections were washed again and mounted with ProLong Gold reagent with DAPI (Invitrogen, Carlsbad, Calif.). The sections were imaged under a confocal microscope (Leica TCS SP5 Microsystems, Bannockburn, Ill.). Adjacent sections were sent for routine histology. The intensity for each image was calculated using Matlab (Mathworks, Natick, Mass.).

[4] = system: human EMR specimens (normal mucosa, polypoid and non-polypoid dysplasia); experiment: Stereomicroscopic validation on EMR specimens; details: for fluorescence intensity on stereomicroscopy: 10 μmol/L, 5 min, mean±SEM
Excerpt: Binding of the candidate or control peptide to the dysplasia on freshly resected human specimens via endoscopic mucosal resection (EMR) was validated on fluorescence stereomicroscopy. Patients with previously diagnosed polypoid and non-polypoid dysplasia who were referred for EMR were recruited. Institutional review board approval was obtained from the VA Palo Alto Health Care System, and informed consent was acquired. After resection, the specimens were rinsed in PBS 3× to remove debris and mucous. An autofluorescence image was acquired before incubating with the peptide. Then, specimens were incubated with either the FITC-labeled candidate or control peptide at a concentration of 10 μmol/L for 5 min. The unbound peptide was rinsed off with PBS 3×. The mucosal surface of the specimen was oriented face up, and a dab of ink was applied to the upper border as a landmark to register the white light and fluorescence images with histology. A white light image was collected from the specimen with and without an overlying transparent grid that contains squares with dimensions of 1×1 mm^2. Fluorescence images were collected at 500 milliseconds per frame (with the overlying grid removed) using a stereomicroscope (Olympus SZX-16 equipped with Rolera camera; Olympus Corp, Tokyo, Japan) using 477 to 500 nm excitation and 500 to 630 nm emission. A correction to the fluorescence images was performed because the intensity at the center of the image is greater than that in the periphery due to differences in distance. A fluorescence image was collected from a solution of 10 μM FITC in a plate to provide a uniform target for calibration, allowing for quantitative analysis over the entire field of view. After the fluorescence intensities were corrected, lines along the length of the specimen spaced by 2-mm intervals in each image were identified using the grid from the white light image. The mean intensity from each 1×1 mm^2 interval along this length of tissue was calculated using Matlab and compared with histology. Histopathologic interpretation was performed by a gastrointestinal pathologist (HA) who classified the specimens stained with H&E as normal colonic mucosa, dysplasia, or adenocarcinoma. The histopathologic evaluation of the EMR specimens was conducted at VA Palo Alto Health Care System (AM) and classified as either dysplasia or normal mucosa.

[5] = system: colonic adenomas; experiment: In vivo imaging with non-scanning endoscope, FITC-labeled peptides; parameters: species or system CPC; Apc mice; details: Non-scanning Endoscopy Results; FITC label; mean ± SD
Excerpt: Specific binding of the candidate peptides to primary dysplastic colonic epithelial cells were validated on flow cytometry ex vivo and with small animal endoscopy in vivo using FITC-labeled peptides using a non-scanning white light endoscope.

## KCCFPAQ-FITC [FITC-Peptide 2, KCCFPAQ with FITC at the C-terminus on the side chain of lysine residue via GGGSK linker]
[1]
  binding to Hs738.St/Int. cells on microscopy: not the surface of the Hs738.St/Int cells
[1]; listed as KCCFPAQ peptide
  binding to Hs738.St/Int. cells on microscopy: No binding
[2]
  T/B carcinoma compared to normal mucosa: 7
  binding to carcinoma relative to dysplastic adenomas: 1.5 fold
[2]; 10 μM, 15 min, RT
  binding to normal mucosa: no binding was observed
  staining of pre-malignant lesions (dysplastic adenomas) and malignant lesions (carcinoma): stained consistently
[2]; adenoma
  T/B ratio FITC-Peptide 2 vs. FITC-Control peptide 2: 3
[2]; carcinoma
  T/B ratio FITC-Peptide 2 vs. FITC-Control peptide 2: 6
[2]; normal mucosa
  T/B ratio FITC-Peptide 2 vs. FITC-Control peptide 2: 1
[3]
  binding to adenocarcinoma compared to normal mucosa: 3.1 times
  binding to adenocarcinoma relative to dysplasia: 1.5 fold
[3]; 10 μM, 15 min, RT
  binding to normal colonic mucosa: no binding
  staining of dysplasia and adenocarcinoma: consistently stains
[3]; adenocarcinoma
  target-to-background (T/B) ratio KCCFPAQ peptide vs. control peptide: 3.6
  fluorescence intensity on immunohistochemistry: 31.5±6.0 AU
[3]; dysplasia
  target-to-background (T/B) ratio KCCFPAQ peptide vs. control peptide: 3.1
  fluorescence intensity on immunohistochemistry: 21.1±3.8 AU
[3]; normal mucosa
  target-to-background (T/B) ratio KCCFPAQ peptide vs. control peptide: 2.0
  fluorescence intensity on immunohistochemistry: 10.1±3.6 AU
[4]
  T/B flat adenoma to adjacent normal mucosa: ~2.0 fold
  T/B polypoid adenoma to adjacent normal mucosa: 1.8
[4]; non-polypoid dysplasia
  fluorescence intensity on stereomicroscopy: 85.1±19.2 AU
[4]; normal mucosa
  fluorescence intensity on stereomicroscopy: 43.5±10.7 AU
[4]; polypoid dysplasia
  fluorescence intensity on stereomicroscopy: 78.6±12.8 AU
[5]
  Average T/B: 1.69 ± 0.70
